# Data taken from patent US20240398775A1, “PHARMACEUTICAL COMPOSITION FOR USE IN TREATING COGNITIVE DECLINE OR FOR USE IN TREATING OVERWEIGHT OR OBESITY” (University of the Ryukyus, priority 2021, published 2024).
# What was measured:
# [1] = test system: Thy-1+-eYFP neuronal cells; assay: Quantification of Thy1-eYFP neurons (CLARITY); type: in vivo, mouse; conditions: HFD mice treated with PER, p<0.001, n=4
# From the text: Coronal sections of mouse brains from Bregma-0.94 mm to Bregma-4.04 mm (5 mm wide, including the entire hippocampus from dorsal to ventral, medial to lateral) were fixed with 4% paraformaldehyde for 2 days, and then stained with the Golgi Cox staining system (FD Rapid GolgiStain™ Kit, MD 21041, USA). The impregnated tissues were cut into 100 μm sections and counterstained with crystal violet, and the total number of 15 μm spines on the apical dendrites of CA1 and DG and the percentage of morphologic spines (thin, stubby, mushroom) were examined using an Axio Observer Z1 (Carl Zeiss, Germany). Another set of paraformaldehyde-fixed 5 mm wide coronal sections of the brain, including the entire hippocampus, were processed using the passive CLARITY technique (PACT) (62) and examined through Lightsheet Z.1 (Carl Zeiss, Germany) using a 10× clear objective lens, and 3D images of Thy1-YFPH transgenic mice (the Jackson Laboratory, stock number: 003709, strain name: B6. Cg-Tg. (Thy1-YFP) 16Jrs/J) (63, 64), HFD-fed mice, and whole hippocampus of the HFD-fed mice with PER treatment. were acquired respectively. Maximum intensity projection images were acquired along the Z dimension, time dimension, and channel dimension to create an output image with the pixel containing the maximum value for all images in the stack at a particular pixel position. […]
# [2] = test system: dendritic arbors and spines of hippocampus; assay: Golgi staining of hippocampus; type: in vivo, mouse; conditions: HFD mice with PER
# From the text: Coronal sections of mouse brains from Bregma-0.94 mm to Bregma-4.04 mm (5 mm wide, including the entire hippocampus from dorsal to ventral, medial to lateral) were fixed with 4% paraformaldehyde for 2 days, and then stained with the Golgi Cox staining system (FD Rapid GolgiStain™ Kit, MD 21041, USA). The impregnated tissues were cut into 100 μm sections and counterstained with crystal violet, and the total number of 15 μm spines on the apical dendrites of CA1 and DG and the percentage of morphologic spines (thin, stubby, mushroom) were examined using an Axio Observer Z1 (Carl Zeiss, Germany). Another set of paraformaldehyde-fixed 5 mm wide coronal sections of the brain, including the entire hippocampus, were processed using the passive CLARITY technique (PACT) (62) and examined through Lightsheet Z.1 (Carl Zeiss, Germany) using a 10× clear objective lens, and 3D images of Thy1-YFPH transgenic mice (the Jackson Laboratory, stock number: 003709, strain name: B6. Cg-Tg. (Thy1-YFP) 16Jrs/J) (63, 64), HFD-fed mice, and whole hippocampus of the HFD-fed mice with PER treatment. were acquired respectively. Maximum intensity projection images were acquired along the Z dimension, time dimension, and channel dimension to create an output image with the pixel containing the maximum value for all images in the stack at a particular pixel position. With the Z-stack function, a series of XY images at different focus positions can be acquired to create Z-stack. In this manner, a 3D dataset of 400 μm×400 μm was obtained from the specimens, dorsal to lateral and medial to lateral for each of CA1, CA3, and DG.
# [3] = Body weight monitoring of obese mice; type: in vivo, mouse
# Experimental: Male C57BL/6J background and ob/ob mice were obtained from CLEA Japan Inc. and Japan SLC, respectively (3). The reason why male mice were selected is that it has been reported that male mice are susceptible to HFD, such as weight gain, metabolic changes, and disorder of learning and hippocampal synaptic plasticity. These animals were housed 3 to 4 per cage in a standard 12 hour dark-light cycle room at 25° C. in an environment with freely available food and water. All animal experiments were performed in accordance with the guidelines of the Animal Experiment Ethics Committee of the University of the Ryukyus. Time series changes in average food intake and average body weight were monitored in each condition.
# HFD mice were orally administered with HydroGel (Clear HO, Portland, ME 04101, USA) at a dose of 5 mg/kg body weight (HFD treated group with PER). For ob/ob mice, CE-2 feed (CLEA Japan, Inc., Tokyo) was used. HFD mice and ob/ob mice were orally administered one per cage with PER at a dose of 5 mg/kg body weight (HFD mice and ob/ob mice PER-administered group), and body weight and HydroGel intake were monitored twice a week for both groups to adjust the dose of PER to 5 mg/kg body weight.
# Post-weaning (6 weeks) food intake and body weight of mice maintained on control diet (CD), high-fat diet (HFD), or HFD containing PER (Fycompa (trademark), Eisai, Japan) (5 mg/kg/day) was monitored up to 18 w (FIGS. 2, E and F). […] To determine the effect of HFD on cognitive behaviors, the open field test (FIG. 9, AC), elevated plus maze test (FIG. 9, DE), the contextual fear conditioning test (FIG. 9, F), the novel object recognition test (FIG. 2G), and a five-trial social interaction test (FIG. 2H) were performed. […]
# Mice were then split into an HFD-fed group (n=5) and a PER-containing HFD-fed group (n=5) under the condition of the same feeding amount (refer to lower Panel of FIG. 25) and their body weights monitored.
# NMDA receptor (NMDAR) = assay: Ca2+ imaging (Fluo-3) of hippocampal brain slices, NMDA + glycine application (NMDA reaction); type: cell-based, mouse
# [4] = test system: hippocampus and body weight of a person; assay: Perampanel in an obese person: brain MRI, body weight, BMI; type: in vivo, human; conditions: for BMI: 26 w after surgery / 26 weeks of PER administration, before: 37.7
# Experimental: The effect of an AMPA receptor antagonist on the hippocampus and body weight of a person with a BMI value of 38 was investigated. A person had quadriplegia and respiratory disorders due to a large foramen magnum tumor. After the tumor extraction, anti-epileptic treatment was performed. As an anti-epileptic treatment, 2 mg/day (thereafter, the dose was changed to 4 mg/day) of perampanel was orally administered. The transition of the body weight and the Fugl-meyer assessment score of the lower limb was observed. In addition, the size of the hippocampus was evaluated from MRI of the brain of the at 26 weeks after surgery.
# [5] = HFD-fed mice with oral PER 5 mg/kg/day, NMDA 50 μM + glycine 10 μM, N = 5
compound,measurement,setting,value
"N#Cc1ccccc1-c1cc(-c2ccccn2)cn(-c2ccccc2)c1=O [PER, 3-(2-cyanophenyl)-5-(2-pyridyl)-1-phenyl-1,2-dihydropyridine-2-one]",number of Thy-1+-eYFP neuronal cells in CA3,[1],significantly restored
same,Golgi staining positive cells in DG,[2],restored
same,integrity of dendritic arbors in CA1 (Golgi staining),[2],restored
same,spine maturation in DG,[2],immature spines became mature
same,body weight,"[3]; HFD containing PER 5 mg/kg/day from 6 weeks to 18 w, started from 16 w compared to HFD",significant inhibition
same,body weight under the same feeding amount,[3]; PER-containing HFD-fed group (n=5) vs HFD-fed group (n=5),significant body weight loss
same,appearance and body weight,"[3]; ob/ob mice, perampanel-containing diet 5 mg/kg body weight from 8 to 12 weeks of age",overweight was prevented
same,NMDA reaction CA1 (maximum value of NF525),NMDA receptor (NMDAR); [5],1.20 ± 0.08
same,NMDA reaction CA2 (maximum value of NF525),NMDA receptor (NMDAR); [5],1.20 ± 0.09
same,NMDA reaction CA3 (maximum value of NF525),NMDA receptor (NMDAR); [5],1.12 ± 0.04
same,NMDA reaction DG (maximum value of NF525),NMDA receptor (NMDAR); [5],1.17 ± 0.04
same,NMDA reaction EC (maximum value of NF525),NMDA receptor (NMDAR); [5],1.16 ± 0.06
same,signal transduction via the NMDAR,NMDA receptor (NMDAR); hippocampal slices from mice fed HFD and PER 5 mg/kg/day orally by hydrogel,simultaneously restored
same,NMDAR function in all hippocampal subregions,"NMDA receptor (NMDAR); ob/ob mice, PER administration, p<0.05",restoration of NMDAR function
same,body weight of the person,[4]; obese person after administration,decreased smoothly
same,BMI,[4]; obese person,31
same,BMI,"[4]; obese person, listed as AMPA receptor antagonist",33.4
same,gray matter/TIV,"[4]; obese person, 26 w after surgery, oral perampanel 2 then 4 mg/day",0.50 L/L
same,size of the hippocampus (MRI),"[4]; obese person, 26 weeks after surgery, PER administration",clearly increased
